Patent US6921824B1, “Ruthenium dimeric complexes suitable as antimetastatic and antineoplastic agents” (priority 1999, dated 2005)
Marks after values point to notes of the source that are not given here.

Legend:
[1] = test system: murine TS/A adenocarcinoma cells; assay: In vitro cytotoxicity, SRB test (protein synthesis); type: cell-based; settings: for Antiproliferative activity (in words): SRB and MTT, up to 72 h
Description: (§1) In vitro cytotoxicity of complexes of the present invention on murine TS/A adenocarcinoma cells.
(§2) 4×10^3 murine TS/A adenocarcinoma cells resuspended in 200 μl RPMI-1640 medium supplemented with 10% FCS (fetal calf serum), 2 mM glutamine and 50 μg/ml gentamicin sulphate, were seeded in a 96-wells plate. After 24 hours incubation at 37° C., in 5% CO2, the complexes as described in example 4 (A), in example 7 (B), in example 8 (C) and in example 10 (D), each solubilised in RPMI-1640 medium supplemented with 5% FCS, 2 mM glutamine and 50 μg/ml gentamicin sulphate, were added to the cells, each at a final concentration of 10^−4, 10^−5 and 10^−6 M. Cell viability tests were performed after 24, 48 and 72 hours of exposure to the compounds by assessing both the effect on protein synthesis and on mitochondrial activity by means of colorimetric assays, respectively the solphorodamine B test (SRB) and the MTT analysis. Each value (optical density) is the average percentage ±S.E. versus the untreated controls.
(§3) Values such as *p<0.05, **p<0.01 indicate average values statistically different from the controls. Analysis of Variance and Dunnet test were used in the comparison analysis.
(§4) The results are reported in Table 3, wherein both the effect on protein synthesis (SRB) and the mitochondrial activity (MTT) are reported for each complexes tested at different dosages after different exposure time.

[2] = test system: murine TS/A adenocarcinoma cells; assay: In vitro cytotoxicity, MTT analysis (mitochondrial activity); type: cell-based
Description: as §1, §2, §3, §4

[3] = test system: MCa mammary carcinoma; assay: Post-surgical treatment: inhibition of lung metastases at advanced stage of growth, MCa mammary carcinoma; type: in vivo, CBA mice; settings: for Lung metastases Number % T/C / Lung metastases weight % T/C: Treated/Control; for Lung metastases Number / Lung metastases Weight: evaluated day 28; for Growth of the lung metastases (in words): post-surgical treatment at LD0.05 dosages
Description: In vivo testing of the activity of the compounds according to the present invention in mice affected by MCa mammary carcinoma: inhibition activity of lung metastases at an advanced stage of growth.
Five groups of CBA kin female mice weighing 23±3 g were inoculated with […] viable MCa mammary carcinoma cells (as determined by trypan blue exclusion) in 0.05 ml Dulbecco's pH 7.4 buffered calcium- and magnesium-free solution (PBS) by intramuscular injection with a sterile insulin syringe. The tumour cells were derived from donors of the same strain injected with the same tumour cells and with the same procedures 2 weeks before. The suspension of tumour cells was prepared in PBS by mechanical mincing of the tumour mass obtained from donor mice, and further removal of tissue debris and cells was obtained, respectively, by filtration through a double layer of sterile gauze and centrifugation at 250× g for 10 minutes. Kin animals were obtained from a colony from Chester Beatthy from London (UK) and were grown in the University of Trieste animal house accordingly to the procedures accepted for the rearing of kin animals. The MCa mammary carcinoma tumour cell-line was derived from a stock, stored in liquid nitrogen, of tumour cells originally obtained from Rudjer Boskovic Institute of Zagreb (HR).
On day 14 since tumour cells implantation, the primary tumour was surgically removed, after general anesthesia of the animals by intraperitoneal injection of 125 mg/kg of Ketamine.
From day 15 to day 20 after tumour cells implantation, the five mice groups were treated, intraperitoneally with a sterile insulin syringe, respectively with: • Group 1 Control (7 animals): 10 ml/kg of body weight/day of sterile and pyrogen-free physiological solution; • Group 2 (7 animals): 28 mg/kg of body weight/day of the compound as prepared in Example 4 in sterile and pyrogen-free physiological solution; • Group 3 (7 animals): 28 mg/kg of body weight/day of the compound as prepared in Example 7 in sterile and pyrogen-free physiological solution; • Group 4 (7 animals): 51 mg/kg of body weight/day of the compound as prepared in Example 8 in sterile and pyrogen-free physiological solution; • Group 5 (7 animals): 52 mg/kg of body weight/day of the compound as prepared in Example 10 in sterile and pyrogen-free physiological solution.
The dosages corresponding to the LD0.05, calculated separately in animals of the same strain and gender and having the same body weight, was administered intraperitoneally for 6 consecutive days, according to the method of Lichtfield and Wilcoxon, and with an observation time of 10 days since last dose.
On day 28 since tumour cells implantation, the mice were sacrificed by cervical dislocation for the evaluation of lung metastases. The lungs were abducted from the animals immediately after sacrifice, divided in single lobes that were soon examined with a low-magnification microscope equipped with a graduated ocular-grid for the measurement of metastases size, where the orthogonal axes a and b (a≦b) were identified. The metastases were then classified by size and the metastatic tumour weight for each animal was calculated as the sum of each single metastasis weight, each of them considered as a rotation solid developed around the above mentioned axes according to the formula (π/6)·a^2·b. The experimental data obtained were then processed by appropriate statistical tests.
The results are reported in Table 2, where the number and weight of lung metastases obtained in groups of animals treated with the compounds of the present invention with respect to the group of controls treated with sterile and pyrogen-free physiological solution, are shown.

[4] = 28 mg/kg of body weight/day i.p. day 15-20, post-surgical
[5] = 52 mg/kg of body weight/day i.p. day 15-20, post-surgical
[6] = 51 mg/kg of body weight/day i.p. day 15-20, post-surgical

| Compound | SRB optical density, average percentage ±S.E. versus untreated controls ([1]; 10^−4 M, exposure time 24 h) | SRB optical density, average percentage ±S.E. versus untreated controls ([1]; 10^−4 M, exposure time 48 h) | SRB optical density, average percentage ±S.E. versus untreated controls ([1]; 10^−4 M, exposure time 72 h) | SRB optical density, average percentage ±S.E. versus untreated controls ([1]; 10^−5 M, exposure time 24 h) [%] | SRB optical density, average percentage ±S.E. versus untreated controls ([1]; 10^−5 M, exposure time 48 h) [%] | SRB optical density, average percentage ±S.E. versus untreated controls ([1]; 10^−5 M, exposure time 72 h) [%] | SRB optical density, average percentage ±S.E. versus untreated controls ([1]; 10^−6 M, exposure time 24 h) [%] | SRB optical density, average percentage ±S.E. versus untreated controls ([1]; 10^−6 M, exposure time 48 h) [%] | SRB optical density, average percentage ±S.E. versus untreated controls ([1]; 10^−6 M, exposure time 72 h) [%] | Antiproliferative activity (in words) [1] | MTT optical density, average percentage ±S.E. versus untreated controls ([2]; 10^−4 M, exposure time 24 h) | MTT optical density, average percentage ±S.E. versus untreated controls ([2]; 10^−4 M, exposure time 48 h) | MTT optical density, average percentage ±S.E. versus untreated controls ([2]; 10^−4 M, exposure time 72 h) | MTT optical density, average percentage ±S.E. versus untreated controls ([2]; 10^−5 M, exposure time 24 h) [%] | MTT optical density, average percentage ±S.E. versus untreated controls ([2]; 10^−5 M, exposure time 48 h) [%] | MTT optical density, average percentage ±S.E. versus untreated controls ([2]; 10^−5 M, exposure time 72 h) [%] | MTT optical density, average percentage ±S.E. versus untreated controls ([2]; 10^−6 M, exposure time 24 h) [%] | MTT optical density, average percentage ±S.E. versus untreated controls ([2]; 10^−6 M, exposure time 48 h) [%] | MTT optical density, average percentage ±S.E. versus untreated controls ([2]; 10^−6 M, exposure time 72 h) [%] | Growth of the lung metastases (in words) [3] | further results |
| --- | --- | --- | --- | --- | --- | --- | --- | --- | --- | --- | --- | --- | --- | --- | --- | --- | --- | --- | --- | --- | --- |
| C[SH](C)(=O)[Ru-]([Cl])([Cl])([Cl])([Cl])[n+]1cc[n+]([Ru-]([Cl])([Cl])([Cl])([Cl])[SH](C)(C)=O)cc1.[Na+].[Na+] [Example 4, [Na]2[trans-RuCl4(Me2SO)]2(μ-pyz)] | 32 ± 1** % | 51 ± 2** % | 66 ± 2** % | 99 ± 5 | 95 ± 1 | 95 ± 2 | 112 ± 3 | 102 ± 5 | 107 ± 2 | scarce and reversible | 34 ± 1** % | 50 ± 7** % | 59 ± 1** % | 100 ± 10 | 108 ± 12 | 93 ± 4 | 105 ± 10 | 101 ± 9 | 89 ± 2 | reduce significantly | Lung metastases Number % T/C [3, 4]: 80%; Lung metastases weight % T/C [3, 4]: 39%; Lung metastases Number [3, 4]: 41.4 ± 8.0; Lung metastases Weight [3, 4]: 96 ± 20 mg |
| C[SH](C)(=O)[Ru-]([Cl])([Cl])([Cl])([Cl])[n+]1ccc(CCc2cc[n+]([Ru-]([Cl])([Cl])([Cl])([Cl])[SH](C)(C)=O)cc2)cc1.[Na+].[Na+] [Example 10, [Na]2[trans-RuCl4(Me2SO)]2(μ-etbipy)] | 47 ± 2** % | 62 ± 14** % | 73 ± 2** % | 81 ± 8 | 94 ± 3 | 95 ± 1 | 102 ± 9 | 81 ± 5 | 93 ± 5 | – | 76 ± 9% | 65 ± 4** % | 76 ± 4** % | 97 ± 12 | 93 ± 2 | 84 ± 5 | 114 ± 7 | 109 ± 4 | 88 ± 4 | reduce significantly | Lung metastases Number % T/C [3, 5]: 53%; Lung metastases weight % T/C [3, 5]: 29%; Lung metastases Number [3, 5]: 27.8 ± 7.8; Lung metastases Weight [3, 5]: 71 ± 20 mg |
| [Na]2[trans-RuCl4(Me2SO)]2(μ-bipy) [Example 8] | 16 ± 1** % | 49 ± 6** % | 78 ± 5** % | 102 ± 9 | 86 ± 9 | 88 ± 7 | 77 ± 6 | 92 ± 8 | 95 ± 2 | scarce and reversible | 33 ± 5** % | 52 ± 9** % | 68 ± 4** % | 129 ± 9 | 91 ± 3 | 90 ± 2 | 91 ± 7 | 103 ± 9 | 93 ± 5 | reduce significantly | Lung metastases Number % T/C [3, 6]: 40%; Lung metastases weight % T/C [3, 6]: 31%; Lung metastases Number [3, 6]: 20.6 ± 7.3; Lung metastases Weight [3, 6]: 76 ± 31 mg |
| C[SH](C)(=O)[Ru-]([Cl])([Cl])([Cl])([Cl])[n+]1ccc[n+]([Ru-]([Cl])([Cl])([Cl])([Cl])[SH](C)(C)=O)c1.[Na+].[Na+] [Example 7, [Na]2[trans-RuCl4(Me2SO)]2(μ-pym)] | 58 ± 2** % | 73 ± 8* % | 61 ± 2** % | 95 ± 9 | 108 ± 5 | 100 ± 1 | 101 ± 9 | 100 ± 3 | 95 ± 7 | – | 90 ± 10% | 71 ± 12* % | 60 ± 1** % | 117 ± 1 | 104 ± 9 | 93 ± 9 | 110 ± 2 | 110 ± 13 | 104 ± 8 | reduce significantly | Lung metastases Number % T/C [3, 4]: 78%; Lung metastases weight % T/C [3, 4]: 44%; Lung metastases Number [3, 4]: 40.4 ± 7.4; Lung metastases Weight [3, 4]: 107 ± 31 mg |
